Assay results taken from the NIST ThermoML archive (doi:10.1016/j.jct.2005.03.016).
± gives the expanded uncertainty stated by the source.

Assay: xn = mol fraction of the nth substance listed
Conditions: Liquid, Vibrating tube method, x1 = 1

SMILES: CCO [ethanol] + CC1CCCCC1
- mass density (283.15 K, 100 kPa): 798 ± 0.2 kg/m3
- mass density (283.15 K, 5000 kPa): 802 ± 0.2 kg/m3
- mass density (283.15 K, 10000 kPa): 805.9 ± 0.2 kg/m3
- mass density (283.15 K, 15000 kPa): 809.5 ± 0.3 kg/m3
- mass density (283.15 K, 20000 kPa): 813 ± 0.3 kg/m3
- mass density (283.15 K, 25000 kPa): 816.4 ± 0.4 kg/m3
- mass density (283.15 K, 30000 kPa): 819.7 ± 0.4 kg/m3
- mass density (283.15 K, 35000 kPa): 822.8 ± 0.4 kg/m3
- mass density (283.15 K, 40000 kPa): 825.9 ± 0.5 kg/m3
- mass density (283.15 K, 45000 kPa): 828.8 ± 0.5 kg/m3
- mass density (293.15 K, 100 kPa): 789.5 ± 0.2 kg/m3
- mass density (293.15 K, 5000 kPa): 793.7 ± 0.2 kg/m3
- mass density (293.15 K, 10000 kPa): 797.8 ± 0.3 kg/m3
- mass density (293.15 K, 15000 kPa): 801.6 ± 0.3 kg/m3
- mass density (293.15 K, 20000 kPa): 805.3 ± 0.3 kg/m3
- mass density (293.15 K, 25000 kPa): 808.9 ± 0.4 kg/m3
- mass density (293.15 K, 30000 kPa): 812.3 ± 0.4 kg/m3
- mass density (293.15 K, 35000 kPa): 815.6 ± 0.5 kg/m3
- mass density (293.15 K, 40000 kPa): 818.7 ± 0.5 kg/m3
- mass density (293.15 K, 45000 kPa): 821.8 ± 0.5 kg/m3
- mass density (303.15 K, 100 kPa): 780.9 ± 0.2 kg/m3
- mass density (303.15 K, 5000 kPa): 785.3 ± 0.2 kg/m3
- mass density (303.15 K, 10000 kPa): 789.6 ± 0.3 kg/m3
- mass density (303.15 K, 15000 kPa): 793.7 ± 0.3 kg/m3
- mass density (303.15 K, 20000 kPa): 797.5 ± 0.4 kg/m3
- mass density (303.15 K, 25000 kPa): 801.3 ± 0.4 kg/m3
- mass density (303.15 K, 30000 kPa): 804.8 ± 0.4 kg/m3
- mass density (303.15 K, 35000 kPa): 808.2 ± 0.5 kg/m3
- mass density (303.15 K, 40000 kPa): 811.5 ± 0.5 kg/m3
- mass density (303.15 K, 45000 kPa): 814.7 ± 0.6 kg/m3
- mass density (313.15 K, 100 kPa): 772.1 ± 0.2 kg/m3
- mass density (313.15 K, 5000 kPa): 776.8 ± 0.2 kg/m3
- mass density (313.15 K, 10000 kPa): 781.3 ± 0.3 kg/m3
- mass density (313.15 K, 15000 kPa): 785.6 ± 0.3 kg/m3
- mass density (313.15 K, 20000 kPa): 789.6 ± 0.4 kg/m3
- mass density (313.15 K, 25000 kPa): 793.5 ± 0.4 kg/m3
- mass density (313.15 K, 30000 kPa): 797.2 ± 0.5 kg/m3
- mass density (313.15 K, 35000 kPa): 800.8 ± 0.5 kg/m3
- mass density (313.15 K, 40000 kPa): 804.2 ± 0.5 kg/m3
- mass density (313.15 K, 45000 kPa): 807.6 ± 0.6 kg/m3
- mass density (323.15 K, 100 kPa): 763.3 ± 0.2 kg/m3
- mass density (323.15 K, 5000 kPa): 768.3 ± 0.2 kg/m3
- mass density (323.15 K, 10000 kPa): 773 ± 0.3 kg/m3
- mass density (323.15 K, 15000 kPa): 777.6 ± 0.3 kg/m3
- mass density (323.15 K, 20000 kPa): 781.8 ± 0.4 kg/m3
- mass density (323.15 K, 25000 kPa): 785.9 ± 0.4 kg/m3
- mass density (323.15 K, 30000 kPa): 789.7 ± 0.5 kg/m3
- mass density (323.15 K, 35000 kPa): 793.5 ± 0.5 kg/m3
- mass density (323.15 K, 40000 kPa): 797.1 ± 0.6 kg/m3
- mass density (323.15 K, 45000 kPa): 800.5 ± 0.6 kg/m3
- mass density (333.15 K, 100 kPa): 754 ± 0.2 kg/m3
- mass density (333.15 K, 5000 kPa): 759.3 ± 0.2 kg/m3
- mass density (333.15 K, 10000 kPa): 764.3 ± 0.3 kg/m3
- mass density (333.15 K, 15000 kPa): 769.1 ± 0.3 kg/m3
- mass density (333.15 K, 20000 kPa): 773.6 ± 0.4 kg/m3
- mass density (333.15 K, 25000 kPa): 777.8 ± 0.4 kg/m3
- mass density (333.15 K, 30000 kPa): 781.9 ± 0.5 kg/m3
- mass density (333.15 K, 35000 kPa): 785.8 ± 0.5 kg/m3
- mass density (333.15 K, 40000 kPa): 789.5 ± 0.6 kg/m3
- mass density (333.15 K, 45000 kPa): 793.1 ± 0.6 kg/m3
- mass density (343.15 K, 100 kPa): 744.5 ± 0.2 kg/m3
- mass density (343.15 K, 5000 kPa): 750.1 ± 0.2 kg/m3
- mass density (343.15 K, 10000 kPa): 755.5 ± 0.3 kg/m3
- mass density (343.15 K, 15000 kPa): 760.5 ± 0.3 kg/m3
- mass density (343.15 K, 20000 kPa): 765.3 ± 0.4 kg/m3
- mass density (343.15 K, 25000 kPa): 769.8 ± 0.5 kg/m3
- mass density (343.15 K, 30000 kPa): 774 ± 0.5 kg/m3
- mass density (343.15 K, 35000 kPa): 778.1 ± 0.5 kg/m3
- mass density (343.15 K, 40000 kPa): 782 ± 0.6 kg/m3
- mass density (343.15 K, 45000 kPa): 785.7 ± 0.6 kg/m3
- mass density (353.15 K, 5000 kPa): 740.6 ± 0.2 kg/m3
- mass density (353.15 K, 10000 kPa): 746.4 ± 0.3 kg/m3
- mass density (353.15 K, 15000 kPa): 751.7 ± 0.4 kg/m3
- mass density (353.15 K, 20000 kPa): 756.7 ± 0.4 kg/m3
- mass density (353.15 K, 25000 kPa): 761.5 ± 0.5 kg/m3
- mass density (353.15 K, 30000 kPa): 766 ± 0.5 kg/m3
- mass density (353.15 K, 35000 kPa): 770.2 ± 0.6 kg/m3
- mass density (353.15 K, 40000 kPa): 774.3 ± 0.6 kg/m3
- mass density (353.15 K, 45000 kPa): 778.2 ± 0.7 kg/m3
